In patent US20230201124A1, “LUBRICANT FOR PHARMACEUTICALS AND NUTRACEUTICALS” (JRS Pharma GmbH & Co. KG, priority 2021, published 2023):

Columns and labels:
[1] = Tablet hardness versus compression force of lubricated tablets; type: physicochemical; conditions: for direction of change in tablet hardness: Example 8: lowest level/shortest blend time versus highest level/longest blend time
Method: Blends consisting of five separate levels of each lubricant type were prepared, with the lubricant blending time set for up to 60 minutes. After the addition of lubricant to the ibuprofen-MCC premix and the initiation of blending, a portion of each blend (enough to make a representative number of tablets) was withdrawn at each of 5 intervals (5, 15, 30, 45 and 60 minutes). […]
Tablet hardnesses and ejection forces were measure for each variant.

[2] = Lubricant-API stability of 1:1 aspirin-lubricant blends by NIR spectra; type: physicochemical; conditions: all tested storage conditions, 2 months
From the text: Example 9 is a study which examined the lubricant-API stability of rice bran wax, in comparison with magnesium stearate. Aspirin was chosen as a model API for the study. Magnesium stearate is known to interact unfavorably with aspirin. Aspirin also has a known tendency to convert to salicylic acid in the presence of moisture.
Aspirin and lubricant were ground together at a 1:1 ratio by weight with a glass mortar and pestle, then portioned into three vials which were labeled for room temperature (ambient) storage or for storage closed or open in a stability chamber at 40° C. and 75% RH. Near-IR (NIR) spectra were obtained periodically over two months of storage under these three different conditions.
FIG. 22 is an NIR spectra of the study components of Example 9, and provides the following depictions: aspirin (close dash), magnesium stearate (far dash), rice bran wax (solid) and salicylic acid (dotted). Near IR spectra were obtained on a Metrohm 6500 RCA (Rapid Content Analyzer) reflectance NIR (JRS #1219) and a standard normal variate (SNV) pre-processing routine was used to normalize the spectra for comparison.

[3] = Example 8: lowest level/shortest blend time versus highest level/longest blend time (1.0%, 60 min), at each compression force

Row | Molecule | direction of change in tablet hardness [1] | drop in tablet hardness [1, 3] | interaction between lubricant and aspirin [2] | tablet hardness ([1]; Example 8: 1% lubricant, 60 minute blend, FIG. 18) | drop in tablet hardness ([1]; Example 8: 15 kN compaction force, 0.125%/5 min versus 1.0%/60 min, FIG. 19) [N] | tablet hardness ([1]; Example 8: highest lubricant level (1.0%), 5 minute blend, FIG. 17)
1 | CCCCCCCCCCCCCCCCCCOC(=O)/C=C/C(=O)[O-].[Na+] [Pruv®, sodium stearyl fumarate] | drop in tablet hardness | < 3 N |  |  |  | 
2 | magnesium stearate | drop in tablet hardness | 11-20 N | interacts with aspirin | softest tablets | ~16 | lower tablet hardness values than sodium stearyl fumarate and hydrogenated vegetable oil
